Test results from patent US5744355A, “cDNA cloning and expression of human liver estrogen sulfotransferase” (Mayo Foundation for Medical Education and Research, priority 1995, dated 1998).

T1: protein encoded by the human liver EST cDNA (Homo sapiens, UniProt P49888)
T1 construct: made in house; host or cells: COS-1 (ATCC CRL-1650) cells transiently transfected with EST-p91023(B); 100,000 x g supernatant used
T1 sequence (P49888 1-294): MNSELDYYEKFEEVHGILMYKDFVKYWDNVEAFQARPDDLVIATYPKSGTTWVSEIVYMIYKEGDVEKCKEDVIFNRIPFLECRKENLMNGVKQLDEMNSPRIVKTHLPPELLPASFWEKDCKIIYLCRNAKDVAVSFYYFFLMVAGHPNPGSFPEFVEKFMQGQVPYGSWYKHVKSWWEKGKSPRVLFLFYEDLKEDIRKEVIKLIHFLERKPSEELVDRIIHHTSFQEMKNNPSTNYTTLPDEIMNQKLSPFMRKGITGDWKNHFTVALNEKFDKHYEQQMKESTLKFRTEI

T2: human EST enzyme (Homo sapiens, UniProt P49888)
T2 sequence (P49888 1-294): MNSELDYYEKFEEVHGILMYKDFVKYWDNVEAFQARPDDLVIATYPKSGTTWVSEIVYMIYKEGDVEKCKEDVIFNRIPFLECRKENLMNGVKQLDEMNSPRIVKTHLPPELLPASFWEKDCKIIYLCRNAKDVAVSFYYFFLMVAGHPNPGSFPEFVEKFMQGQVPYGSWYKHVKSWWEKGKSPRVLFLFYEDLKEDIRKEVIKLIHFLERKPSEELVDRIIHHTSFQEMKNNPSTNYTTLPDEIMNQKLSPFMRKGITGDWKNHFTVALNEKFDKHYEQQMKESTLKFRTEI

T3: recombinant human liver EST enzyme (Homo sapiens, UniProt P49888)
T3 sequence (P49888 1-294): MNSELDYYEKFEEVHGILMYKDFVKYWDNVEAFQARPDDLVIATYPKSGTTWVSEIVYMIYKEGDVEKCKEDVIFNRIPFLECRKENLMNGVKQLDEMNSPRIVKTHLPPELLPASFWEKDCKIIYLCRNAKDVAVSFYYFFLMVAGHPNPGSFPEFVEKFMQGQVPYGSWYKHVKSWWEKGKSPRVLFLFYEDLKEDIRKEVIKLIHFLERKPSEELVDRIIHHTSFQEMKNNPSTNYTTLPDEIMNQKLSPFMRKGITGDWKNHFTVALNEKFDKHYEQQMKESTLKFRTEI

T4: recombinant human liver DHEA ST enzyme (Homo sapiens, UniProt Q06520)
T4 sequence (Q06520 1-285): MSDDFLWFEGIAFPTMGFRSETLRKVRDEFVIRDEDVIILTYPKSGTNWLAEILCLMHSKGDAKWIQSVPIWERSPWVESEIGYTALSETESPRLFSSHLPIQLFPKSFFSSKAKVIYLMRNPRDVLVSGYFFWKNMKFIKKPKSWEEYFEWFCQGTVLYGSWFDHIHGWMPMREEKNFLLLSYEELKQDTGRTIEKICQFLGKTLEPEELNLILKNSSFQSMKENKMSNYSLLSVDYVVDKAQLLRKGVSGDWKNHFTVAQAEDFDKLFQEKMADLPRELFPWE

B1: EST enzyme: recombinant human liver estrogen sulfotransferase (SEQ ID NO:2) expressed in COS-1 cells (protein)
chain: MNSELDYYEKFEEVHGILMYKDFVKYWDNVEAFQARPDDLVIATYPKSGTTWVSEIVYMIYKEGDVEKCKEDVIFNRIPFLECRKENLMNGVKQLDEMNSPRIVKTHLPPELLPASFWEKDCKIIYLCRNAKDVAVSFYYFFLMVAGHPNPGSFPEFVEKFMQGQVPYGSWYKHVKSWWEKGKSPRVLFLFYEDLKEDIRKEVIKLIHFLERKPSEELVDRIIHHTSFQEMKNNPSTNYTTLPDEIMNQKLSPFMRKGITGDWKNHFTVALNEKFDKHYEQQMKESTLKFRTEI

Tests used:
[1] = molecular target: T1, protein encoded by the human liver EST cDNA; test: ST enzymatic activity after transfection of COS-1 cells with human liver EST cDNA in p91023(B); assay type: biochemical; conditions: for sulfation catalyzed by the protein encoded by the human liver EST cDNA: approximate values, transfected COS-1 cells; for ST enzymatic activity, EST cDNA, Average: average of two experiments; for ST enzymatic activity, EST cDNA, Average / ST enzymatic activity, EST cDNA, Expt. 1: HSS of transfected COS-1 cells
Protocol: COS-1 (ATCC No. CRL-1650) cells were transfected with an EST cDNA expression construct in the eukaryotic expression vector p91023(B) as well as with vector alone using the DEAE-dextran method (H. Luthman et al., Nucleic Acids Res., 11, 1295-1308 (1983)). Specifically, the COS-1 cells were plated in 100-mm dishes in Dulbecco's modified Eagle's medium (DMEM) supplemented with 10% fetal calf serum (FCS) at a density of 1.2×10^6 cells/dish, and were grown overnight. The EST-p91023(B)construct, a control human liver DHEA ST-p91023(B) construct, p91023(B) with no insert, or only buffer were mixed with DEAE-dextran and DMEM and were added to the cell culture dishes (J. H. McCutchan et al., J. Natl. Cancer Inst., 41, 351 (1968); R. J. Kaufman et al., Mol. Cell. Biol., 2, 946 (1989)). After 1 hour, the DEAE-dextran solution was replaced for 2 minutes by DMEM that contained 10% dimethylsulfoxide (DMSO), followed by 0.1 mM chloroquine in DMEM for 2 hours (H. Luthman et al., Nucleic Acids Res., 11, 1295 (1983)). Cells were then grown for 48 hours in DMEM supplemented with 10% FCS. After harvesting, cell pellets were washed with 5 ml of phosphate buffered saline (PBS) and were homogenized for 30 seconds in 2 ml of 5 mM potassium phosphate buffer, pH 6.5. The homogenates were centrifuged at 12,000-15,000×g for 15 minutes at 4° C., and supernatants were collected and centrifuged at 100,000×g for 1 hour at 4° C. Five μl aliquots of the 100,000×g "high-speed supernatants" (HSS) were assayed for ST enzymatic activities (Example IV).
ST activities were measured in preparations of transfected COS- 1 cells using DHEA, 4- nitrophenol and dopamine, model substrates for DHEA ST, TS PST and TL PST, respectively (Example IV). The assays were performed under optimal conditions for the measurement of these three enzyme activities in human liver preparations (N. R. C. Campbell et al., Biochem. Pharmacol., 36, 1435-1446 (1987); J. S. Hernandez et al., Drug Metab. Dispos., 20, 413-422 (1992), both of which are incorporated herein by reference). The sulfation of estrone was measured using optimal conditions for the assay of EST activity of human EST enzyme (Example III(c)).
Estrone was used as the substrate to determine optimal assay conditions and, subsequently, to characterize the properties of human EST enzyme. […] Mg^2+ is known to increase the activities of several ST enzymes (J. S. Hernandez et al., Drug Metab. Dispos., 20, 413-422 (1992); I. A. Aksoy et al., Druc, Metab. Dispos., 21, 268-276 (1993)). […]

human EST enzyme = molecular target: T2, human EST enzyme; test: Preferred substrate and optimal assay conditions for recombinant human EST enzyme; assay type: biochemical
Protocol: Estrone was used as the substrate to determine optimal assay conditions and, subsequently, to characterize the properties of human EST enzyme. […] The optimal pH for the measurement of estrone ST activity with the expressed protein was approximately 6.5 in the presence of 8.2 mM potassium phosphate buffer. […] EST activity assays were subsequently performed on crude extracts from recombinant COS-1 cells expressing human EST enzyme using the optimal assay conditions thus identified: at a reaction pH of 6.5 in the presence of 1.25 mM MgCl2 with 0.05 μM estrone as the sulfate acceptor substrate, in 8.2 mM potassium phosphate buffer.

[2] = molecular target: T3, recombinant human liver EST enzyme; test: Substrate kinetics (apparent Km), COS-1 expressed EST enzyme; assay type: biochemical; design: made in house; host or cells: COS-1 (ATCC CRL-1650) cells transiently transfected with EST-p91023(B); 100,000 x g supernatant used; conditions: compound as sulfate acceptor substrate; estrone 0.01 to 0.1 μM, DHEA 0.0125 to 32 μM
Protocol: (§1) Total reaction assay volume was about 200 μl . […] The tubes were vortexed after each addition.
(§2) Substrate kinetic studies designed to estimate apparent Km values were performed utilizing the EST and DHEA ST activity assays described above and in Example III. Since human liver EST enzyme and DHEA ST enzyme can both catalyze the sulfation of steroids, these studies presented an opportunity to determine apparent Km values of the two enzymes with estrone and DHEA as substrates. Both enzyme preparations were tested with a range of estrone and DHEA concentrations (Table III).
(§3) Apparent Km values were calculated by the method of Wilkinson (Biochem. J., 80, 324-332 (1961)) with a computer program written by Cleland (Nature, 198, 463-465 (1963)).

[3] = molecular target: T4, recombinant human liver DHEA ST enzyme; test: Substrate kinetics (apparent Km), COS-1 expressed DHEA ST enzyme; assay type: biochemical; design: made in house; host or cells: COS-1 cells transiently transfected with human liver DHEA ST-p91023(B); 100,000 x g supernatant used; conditions: compound as sulfate acceptor substrate; estrone 0.2 to 100 μM, DHEA 0.06 to 10 μM
Protocol: as §1, §2, §3

[4] = molecular target: T3, recombinant human liver EST enzyme; conditions: 150 mM NaCl; substrate estrone
Source text: Estrone was used as the substrate to determine optimal assay conditions and, subsequently, to characterize the properties of human EST enzyme. […] Mg^2+ is known to increase the activities of several ST enzymes (J. S. Hernandez et al., Drug Metab. Dispos., 20, 413-422 (1992); I. A. Aksoy et al., Druc, Metab. Dispos., 21, 268-276 (1993)).

[5] = molecular target: T4, recombinant human liver DHEA ST enzyme; conditions: 75 mM NaCl; substrate DHEA
Protocol: The previously described EST and DHEA ST activity assays were used to measure ST activities of recombinant human liver EST enzyme and DHEA ST enzyme, respectively, wherein NaCl concentration in the reaction mixture was made 0.6 to 150 mM by the addition of 5 μL of a concentrated aqueous NaCl solution prior to incubation.

[6] = Thermal inactivation of ST activity; assay type: physicochemical, human; conditions: 15 minutes preincubation; mean ±SEM
Protocol: Aliquots of recombinant COS-1 cell extracts were incubated at 31°, 33°, 35°, 37°, 39°, 41°, 43° or 45° C. for 15 minutes prior to assay to determine thermal inactivation parameters. […] For the thermal inactivation experiment, aliquots of HSS from COS-1 cells transfected with EST cDNA or DHEA ST cDNA were diluted 1:2 (v/v) with 5 mM potassium phosphate buffer, pH 6.5, preincubated at various temperatures for 15 minutes and was then placed on ice. An aliquot of the same preparation was kept on ice as a control. Each aliquot was then diluted further for assay of the ST activity being measured. Values for controls were determined at each temperature studied. Data obtained during thermal inactivation and DCNP inhibition studies were analyzed with the GraphPAD InPlot curve-fitting program (GraphPAD InPlot Software, San Diego, Calif.).

[7] = first EST cDNA column, estrone 0.05 μM, DHEA 5 μM, 4-nitrophenol 4 μM, dopamine 60 μM, 1 unit = 1 nmol sulfated product per hour at 37° C.
[8] = second EST cDNA column, same substrate concentrations

Molecule | sulfation catalyzed by the protein encoded by the human liver EST cDNA [1] | ST enzymatic activity, EST cDNA, Average [1] | ST enzymatic activity, EST cDNA, Expt. 1 [1, 7] | ST enzymatic activity, EST cDNA, Expt. 1 [1, 8] | other results
O=[N+]([O-])c1ccc(O)cc1 [4-Nitrophenol, 4-nitrophenol] | ~ 5 units/mg protein | 5.2 units/mg protein | 3.4 units/mg protein | 6.9 units/mg protein | 
C[C@]12CC[C@@H]3c4ccc(O)cc4CC[C@H]3[C@@H]1CCC2=O [Estrone] | ~ 9 units/mg protein | 8.8 units/mg protein | 6.0 units/mg protein | 11.5 units/mg protein | sulfotransferase activity relative to other sulfate acceptor substrates (human EST enzyme; compared with estradiol-17β, ethinyl estradiol, or DHEA): greater sulfotransferase activity; estrone concentration giving maximal enzymatic activity (human EST enzyme; range 0.01 to 0.10 μM tested): 0.05 µM; Km [2]: 0.17 µM; Km [3]: 3.1 µM
[Cl-].[Na+] [NaCl] |  |  |  |  | increase of EST activity [4]: 86%; peak activation of DHEA ST activity [5]: 62%
NCCc1ccc(O)c(O)c1 [Dopamine, dopamine] | not | 0.0 units/mg protein | 0.0 units/mg protein | 0.0 units/mg protein | 
[Cl-].[Cl-].[Mg+2] [Mg^2+, MgCl2] |  |  |  |  | increase of EST activity (human EST enzyme; 1.25 mM Mg2+, estrone as substrate): 20%
C[C@]12CC[C@H](O)CC1=CC[C@@H]1[C@@H]2CC[C@]2(C)C(=O)CC[C@@H]12 [DHEA, dehydroepiandrosterone] | ~ 2 units/mg protein | 2.3 units/mg protein | 1.3 units/mg protein | 3.3 units/mg protein | Km [2]: 0.85 µM; Km [3]: 2.6 µM
B1 |  |  |  |  | temperature at which 50% inactivation of activity occurred [6]: 38.2±0.12 °C
